Key:
Type in all cases: cell-based, mouse
[1] = system: α7 integrin (LacZ reporter in α7+/LacZ myotubes); assay: Myotube α7 integrin FDG assay (Burkin assay in myotubes, 96-well); details: myotubes
[2] = system: α7 integrin (LacZ reporter in α7βgal+/− myoblasts); assay: Myoblast α7+/LacZ integrin FDG assay (Burkin assay in myoblasts, 96-well); details: α7+/LacZ myoblasts, 96-well
[3] = system: β-galactosidase in CMV-LacZ C2C12 myotubes; assay: CMV-LacZ secondary screen in C2C12 myotubes (β-Gal stabilizing assay); details: for CMV-LACZ in Myotubes, signal relative to DMSO: C2C12 CMV-LacZ myotubes, fold relative to DMSO; for CMV-LACZ in Myotubes (β-galactosidase activity relative to DMSO): CMV-LacZ C2C12 myotubes, 96-well format
How it was run: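 Dose-response runs at 0.5–40 μM (0.5, 1, 5, 10, 20, 40 μM; N=2 per point) used a clonal C2C12 line carrying CMV-LacZ. Cells were assayed as myoblasts or as differentiated myotubes, and β-galactosidase levels were read with the FDG fluorogenic substrate.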

SMILES	Burkin Assay in Myotubes, α7 integrin LacZ reporter signal relative to DMSO ([1]; 0.5 uM)	Burkin Assay in Myotubes, α7 integrin LacZ reporter signal relative to DMSO ([1]; 1 uM)	Burkin Assay in Myotubes, α7 integrin LacZ reporter signal relative to DMSO ([1]; 5 uM)	Burkin Assay in Myotubes, α7 integrin LacZ reporter signal relative to DMSO ([1]; 10 uM)	CMV-LACZ in Myotubes, signal relative to DMSO ([3]; 5 uM)	CMV-LACZ in Myotubes, signal relative to DMSO ([3]; 10 uM)	CMV-LACZ in Myotubes, signal relative to DMSO ([3]; 20 uM)	CMV-LACZ in Myotubes, signal relative to DMSO ([3]; 40 uM)	Burkin Assay in Myotubes (signal relative to DMSO) ([1]; 0.5 uM)	Burkin Assay in Myotubes (signal relative to DMSO) ([1]; 1 uM)	Burkin Assay in Myotubes (signal relative to DMSO) ([1]; 5 uM)	Burkin Assay in Myotubes (signal relative to DMSO) ([1]; 10 uM)	Burkin Assay in Myotubes (signal relative to DMSO) ([1]; 20 uM)	Burkin Assay in Myotubes (signal relative to DMSO) ([1]; 40 uM)	Burkin Assay in Myoblasts, value relative to DMSO ([2]; 0.5 uM)	Burkin Assay in Myoblasts, value relative to DMSO ([2]; 1 uM)	Burkin Assay in Myoblasts, value relative to DMSO ([2]; 5 uM)	Burkin Assay in Myoblasts, value relative to DMSO ([2]; 10 uM)	Burkin Assay in Myoblasts, value relative to DMSO ([2]; 20 uM)	Burkin Assay in Myoblasts, value relative to DMSO ([2]; 40 uM)	other results
COc1ccc(S(=O)(=O)N(NC2=NS(=O)(=O)c3ccccc32)C(=O)C(C)C)cc1 [MLS000682883-01]	0.8116	1.095	0.9936	1.01	0.9333	1.084	1.087	0.8967	–	–	–	–	–	–	–	–	–	–	–	–	Burkin Assay in Myotubes, α7 integrin LacZ reporter signal relative to DMSO ([1]; 20 uM): 1.102; Burkin Assay in Myotubes, α7 integrin LacZ reporter signal relative to DMSO ([1]; 40 uM): 1.094; Burkin Assay in Myoblasts, signal relative to DMSO ([2]; 0.5 uM): 0.9476; Burkin Assay in Myoblasts, signal relative to DMSO ([2]; 1 uM): 0.9633; Burkin Assay in Myoblasts, signal relative to DMSO ([2]; 5 uM): 1.011; Burkin Assay in Myoblasts, signal relative to DMSO ([2]; 10 uM): 0.9192; Burkin Assay in Myoblasts, signal relative to DMSO ([2]; 20 uM): 0.8269; Burkin Assay in Myoblasts, signal relative to DMSO ([2]; 40 uM): 0.7379
Cc1ccccc1C(=O)Nc1nnc(SC(C)C)s1 [MLS000683174-01]	–	–	–	–	1.156	1.0866	1.035	1.238	1.145	0.9165	1.007	0.8907	1.081	0.9864	1.02	0.9176	1.02	1.014	1.028	0.8059	–
CC1CCCCN1c1ncnc(N)c1[N+](=O)[O-] (centres unmarked) [MLS000683234-01]	0.9165	1.053	1.091	1.273	0.8204	0.8111	0.6952	0.93	–	–	–	–	–	–	–	–	–	–	–	–	Burkin Assay in Myotubes, α7 integrin LacZ reporter signal relative to DMSO ([1]; 20 uM): 1.414; Burkin Assay in Myotubes, α7 integrin LacZ reporter signal relative to DMSO ([1]; 40 uM): 1.631; Burkin Assay in Myoblasts, signal relative to DMSO ([2]; 0.5 uM): 1.187; Burkin Assay in Myoblasts, signal relative to DMSO ([2]; 1 uM): 0.8341; Burkin Assay in Myoblasts, signal relative to DMSO ([2]; 5 uM): 1.134; Burkin Assay in Myoblasts, signal relative to DMSO ([2]; 10 uM): 1.152; Burkin Assay in Myoblasts, signal relative to DMSO ([2]; 20 uM): 1.067; Burkin Assay in Myoblasts, signal relative to DMSO ([2]; 40 uM): 1.21
CCCC(=O)Nc1ccccc1NC(=O)c1ccc(OCC)cc1 [MLS000685139-01]	–	–	–	–	–	–	–	–	0.8703	0.9202	1.128	1.24	1.102	1.267	0.8234	0.6285	0.8416	0.776	0.9893	0.9848	CMV-LACZ in Myotubes (β-galactosidase activity relative to DMSO) ([3]; 5 uM): 0.9362; CMV-LACZ in Myotubes (β-galactosidase activity relative to DMSO) ([3]; 10 uM): 1.036; CMV-LACZ in Myotubes (β-galactosidase activity relative to DMSO) ([3]; 20 uM): 1.031; CMV-LACZ in Myotubes (β-galactosidase activity relative to DMSO) ([3]; 40 uM): 0.9387
Cc1ccc(NCc2nnc(SCC(=O)Nc3nnc(C)s3)n2C)cc1 [MLS000688437-01]	1.076	1.194	1.124	1.102	1.232	0.9346	1.03	1.051	–	–	–	–	–	–	–	–	–	–	–	–	Burkin Assay in Myotubes, α7 integrin LacZ reporter signal relative to DMSO ([1]; 20 uM): 0.9929; Burkin Assay in Myotubes, α7 integrin LacZ reporter signal relative to DMSO ([1]; 40 uM): 1.034; Burkin Assay in Myoblasts, signal relative to DMSO ([2]; 0.5 uM): 0.8901; Burkin Assay in Myoblasts, signal relative to DMSO ([2]; 1 uM): 0.8878; Burkin Assay in Myoblasts, signal relative to DMSO ([2]; 5 uM): 0.8233; Burkin Assay in Myoblasts, signal relative to DMSO ([2]; 10 uM): 0.9077; Burkin Assay in Myoblasts, signal relative to DMSO ([2]; 20 uM): 0.8203; Burkin Assay in Myoblasts, signal relative to DMSO ([2]; 40 uM): 0.8064
CCS(=O)(=O)N1CCN(c2ccc([N+](=O)[O-])c(NCC3CCCO3)c2)CC1 (centres unmarked) [MLS000693370-01]	–	–	–	–	–	–	–	–	–	–	–	–	–	–	–	–	–	–	–	–	fold induction at 0.5 µM ([1]; Mus musculus, Myotube, 0.5 uM, read-out: Burkin Assay in Myotubes (signal relative to DMSO)): 1.11; fold induction at 1 µM ([1]; Mus musculus, Myotube, 1 uM, read-out: Burkin Assay in Myotubes (signal relative to DMSO)): 1.13; fold induction at 5 µM ([1]; Mus musculus, Myotube, 5 uM, read-out: Burkin Assay in Myotubes (signal relative to DMSO)): 1.16; fold induction at 10 µM ([1]; Mus musculus, Myotube, 10 uM, read-out: Burkin Assay in Myotubes (signal relative to DMSO)): 1.28; fold induction at 20 µM ([1]; Mus musculus, Myotube, 20 uM, read-out: Burkin Assay in Myotubes (signal relative to DMSO)): 1.15; fold induction at 40 µM ([1]; Mus musculus, Myotube, 40 uM, read-out: Burkin Assay in Myotubes (signal relative to DMSO)): 1.25; fold induction at 0.5 µM ([2]; Mus musculus, Myoblast, 48 h, 0.5 uM, read-out: Burkin Assay in Myoblasts, value relative to DMSO): 0.864; fold induction at 1 µM ([2]; Mus musculus, Myoblast, 48 h, 1 uM, read-out: Burkin Assay in Myoblasts, value relative to DMSO): 0.8; fold induction at 5 µM ([2]; Mus musculus, Myoblast, 48 h, 5 uM, read-out: Burkin Assay in Myoblasts, value relative to DMSO): 0.887; fold induction at 10 µM ([2]; Mus musculus, Myoblast, 48 h, 10 uM, read-out: Burkin Assay in Myoblasts, value relative to DMSO): 1.06; fold induction at 20 µM ([2]; Mus musculus, Myoblast, 48 h, 20 uM, read-out: Burkin Assay in Myoblasts, value relative to DMSO): 0.951; fold induction at 40 µM ([2]; Mus musculus, Myoblast, 48 h, 40 uM, read-out: Burkin Assay in Myoblasts, value relative to DMSO): 0.937; CMV-LACZ in Myotubes (β-galactosidase activity relative to DMSO) ([3]; 5 uM): 0.9783; CMV-LACZ in Myotubes (β-galactosidase activity relative to DMSO) ([3]; 10 uM): 0.9621; CMV-LACZ in Myotubes (β-galactosidase activity relative to DMSO) ([3]; 20 uM): 0.9947; CMV-LACZ in Myotubes (β-galactosidase activity relative to DMSO) ([3]; 40 uM): 1.1136
C=CCN(CC=C)C(=O)c1ccc(OC2CCN(S(=O)(=O)N(C)C)CC2)cc1 [MLS000693729-01]	–	–	–	–	0.9722	1.057	0.9031	0.879	0.8219	0.7707	1.119	1.144	0.9682	1.056	0.9069	0.7902	0.8647	0.9088	0.9136	0.9194	–
CCS(=O)(=O)N1CCCC(C(=O)c2ccc(OC)cc2C)C1 (centres unmarked) [MLS000693747-01]	–	–	–	–	–	–	–	–	1.061	0.7194	1.433	0.9111	1.122	1.0456	1.114	1.036	1.0596	1.088	0.8796	0.9175	CMV-LACZ in Myotubes (β-galactosidase activity relative to DMSO) ([3]; 5 uM): 0.9962; CMV-LACZ in Myotubes (β-galactosidase activity relative to DMSO) ([3]; 10 uM): 0.9523; CMV-LACZ in Myotubes (β-galactosidase activity relative to DMSO) ([3]; 20 uM): 0.9693; CMV-LACZ in Myotubes (β-galactosidase activity relative to DMSO) ([3]; 40 uM): 1.043

— patent US9980943B2, “Methods of treating muscular dystrophy” (BOARD OF REGENTS OF THE NEVADA SYSTEM OF HIGHER EDUCATION, …, priority 2013, dated 2018)
